Where two headings read alike, the source gives them in different places.
Experiments:
NIH/3T3 fibroblasts = assay: Cytotoxicity in mammalian cells (sulforhodamine B); assay type: cell-based; settings: 48 h, read-out: Fibroblasts NIH/3T3 (Fib.) IC50
Procedure: The cytotoxic effect of compounds 1–7 was evaluated on NIH/3T3 fibroblasts obtained from the Rio de Janeiro Cell Bank (Duque de Caxias, Brazil). Fibroblasts were seeded at […] in 96-well plates. After 24 h of fixation, cells were incubated for 48 h with 1–7 at 2.5–250 µg·mL^−1, in three replicates. Cell growth was evaluated using the sulforhodamine B colorimetric method, and the optical with absorbances read on the PT-READER microplate instrument (Spectramax 190, Molecular Devices, Sunnyvale, CA, USA) at 540 nm. […] The growth inhibition percentage-GI (%) of each test sample was calculated in Microsoft Office Excel 2007 software. IC50 was determined graphically in the Microcal Origin Version 6.00 program. The selectivity index (SI) was calculated as the ratio between the cytotoxicity on cells (IC50) and the activity on the parasite forms (IC50).

[1] = test system: L. (L.) amazonensis intracellular amastigotes; assay: In vitro antileishmanial activity on intracellular amastigotes in peritoneal macrophages; assay type: cell-based, Leishmania (Leishmania) amazonensis; settings: for IC50: BALB/c peritoneal macrophages, 24 h, Giemsa count, read-out: L. amazonensis Intracellular Amastigotes (Ama.) IC50
Procedure: Peritoneal macrophages were obtained from BALB/c mice in RPMI 1640 culture medium (Sigma-Aldrich® São Paulo, Brazil). After exclusion of inviable cells with trypan blue staining (Sigma-Aldrich® São Paulo, Brazil), cells were transferred to 24-well plates with 13 mm round glass coverslips (10^6 cells/well) and kept at 37 °C/5% CO2. After adhesion for one hour, cells were infected with promastigote forms of L. (L.) amazonensis in the stationary phase (4 × 10^6 cells/well). After 4 h of incubation, samples (complexes 1–7) were added in six replicates (6.25–50.0 µg·mL^−1). […] Coverslips were removed after 24 h, subjected to a dehydration battery with increasing concentrations of acetone: xylol and stained with Giemsa (Sigma-Aldrich®, São Paulo, Brazil) diluted 1:10 in distilled water. After mounting on slides, 200 cells per coverslip were analyzed by light microscopy and the average number of amastigotes/cells was calculated. IC50 was determined using a non-linear dose–response regression curve as described above. The concentrations of complexes were compared by Two-way ANOVA followed by the Tukey test.

[2] = test system: L. (L.) amazonensis promastigote forms; assay: Flow cytometry for mitochondrial membrane potential (TMRE); assay type: cell-based, Leishmania (Leishmania) amazonensis; settings: for reduction in TMRE labeling (ΔΨm): treatment at IC50, relative to nontreated parasites
[3] = test system: L. (L.) amazonensis promastigote forms; assay: In vitro antileishmanial activity on promastigote forms (MTT); assay type: cell-based, Leishmania (Leishmania) amazonensis; settings: 72 h
[4] = test system: L. (L.) amazonensis promastigote forms; assay: Flow cytometry for apoptosis and membrane permeability (PE Annexin V / 7-AAD); assay type: cell-based, Leishmania (Leishmania) amazonensis; settings: for 7-AAD-stained parasites / An. (PE Annexin V-stained parasites) / An./7-AAD (double stained parasites) / Unst. (unstained parasites): treatment at IC50
Text: PE Annexin V staining precedes the loss of membrane integrity observed in the final stages of cell death, resulting from either apoptotic or necrotic processes. PE Annexin V is used in conjunction with the vital dye 7-Amino-Actinomycin (7-AAD) to identify early apoptotic cells (7-AAD negative, PE Annexin V positive). Viable cells with intact membranes exclude 7-AAD, but the membranes of dead and damaged cells are permeable to 7-AAD. Cells that are in late apoptosis or already dead are both PE Annexin V and 7-AAD positive. […] Heat-killed parasites (60 °C bath/10 min) were used as positive control, and untreated parasites were used as negative control. Promastigotes were stained with 5 µL of PE Annexin V and 5 µL 7-AAD (PE Annexin V Apoptosis Detection Kit I, BD Biosciences^TM, Franklin Lakes, NJ, USA) and immediately subjected to flow cytometric analysis (BD FACSCanto^TM II). Then, 10,000 events were captured in the region previously determined to correspond to the parasites. Fluorescence was quantified and histograms were generated.

[5] = 48 h after treatment at the calculated IC50
[6] = 72 h after treatment at the calculated IC50
[7] = MTT, read-out: L. amazonensis Promastigotes (Pro.) IC50
[8] = Leishmania amazonensis, Peritoneal macrophage, in Mus musculus

| Compound | IC50 (NIH/3T3 fibroblasts) [µM] | IC50 [1] [µM] | TMRE-labeled promastigotes [2, 5] [%] | reduction in TMRE labeling (ΔΨm) ([2]; 72 h) [%] | TMRE-labeled promastigotes [2, 6] [%] | IC50 [3, 7] [µM] | 7-AAD-stained parasites ([4]; 24 h) [%] | An. (PE Annexin V-stained parasites) ([4]; 24 h) [%] | An./7-AAD (double stained parasites) ([4]; 24 h) [%] | Unst. (unstained parasites) ([4]; 24 h) [%] | 7-AAD-stained parasites ([4]; 48 h) [%] | An. (PE Annexin V-stained parasites) ([4]; 48 h) [%] | An./7-AAD (double stained parasites) ([4]; 48 h) [%] | Unst. (unstained parasites) ([4]; 48 h) [%] | 7-AAD-stained parasites ([4]; 72 h) [%] | An. (PE Annexin V-stained parasites) ([4]; 72 h) [%] | An./7-AAD (double stained parasites) ([4]; 72 h) [%] | Unst. (unstained parasites) ([4]; 72 h) [%] | also measured |
| --- | --- | --- | --- | --- | --- | --- | --- | --- | --- | --- | --- | --- | --- | --- | --- | --- | --- | --- | --- |
| CC(=O)C1=C([O-])C=C2Oc3c(C(C)=O)c(O)c(C)c(O)c3C2(C)C1=O.CC(=O)C1=C([O-])C=C2Oc3c(C(C)=O)c(O)c(C)c(O)c3C2(C)C1=O.CC(=O)C1=C([O-])C=C2Oc3c(C(C)=O)c(O)c(C)c(O)c3C2(C)C1=O.O.O.O.[La+3] (stereo not drawn) [LaL3·3H2O 7] | 10.9 | 4.58 | 76.0 | 22.3 | 82.0 | 1.49 | 0.4 | 0.7 | 0.5 | 98.3 | 1.6 | 1.8 | 3.3 | 93.3 | 5.6 | 2.4 | 10.0 | 82.0 | Intracellular amastigote activity, arbitrary scale ([1]; class by IC50): active |
| CC(=O)C1=C([O-])C=C2Oc3c(C(C)=O)c(O)c(C)c(O)c3C2(C)C1=O.CC(=O)C1=C([O-])C=C2Oc3c(C(C)=O)c(O)c(C)c(O)c3C2(C)C1=O.CC(=O)C1=C([O-])C=C2Oc3c(C(C)=O)c(O)c(C)c(O)c3C2(C)C1=O.O.O.O.[Gd+3] (stereo not drawn) [GdL3·3H2O 3] | 26.5 | 5.52 | 46.8 | 24.5 | 59.2 | 1.5 | 0.4 | 0.7 | 0.6 | 98.4 | 12.7 | 2.4 | 6 | 78.8 | 3.2 | 2.6 | 7.4 | 86.8 | reduction in TMRE labeling (ΔΨm) ([2]; 48 h): 36.2%; reduction in cell viability ([4]; 48 h after treatment at IC50): 17.4% |
| N=C(N)c1ccc(OCCCCCOc2ccc(C(=N)N)cc2)cc1 [Pentamidine, reference compound] | – | – | – | – | – | 1.49 | – | – | – | – | – | – | – | – | – | – | – | – | IC50 [1, 8]: 0.92 µM; IC50 ([3]; Leishmania amazonensis, read-out: L. amazonensis Promastigotes (Pro.) IC50, 72 h, MTT): 1.5 µM |
| CC(=O)C1=C([O-])C=C2Oc3c(C(C)=O)c(O)c(C)c(O)c3C2(C)C1=O.CC(=O)C1=C([O-])C=C2Oc3c(C(C)=O)c(O)c(C)c(O)c3C2(C)C1=O.CC(=O)C1=C([O-])C=C2Oc3c(C(C)=O)c(O)c(C)c(O)c3C2(C)C1=O.O.O.[Tb+3] (stereo not drawn) [TbL3·2H2O 6] | 17.5 | 7.52 | 70.2 | – | 69.5 | 0.0023 | 0.2 | 0.8 | 0.6 | 98.3 | 1.2 | 1.3 | 3.0 | 94.5 | 6.4 | 2.6 | 10.1 | 80.9 | – |
| CC(=O)C1=C([O-])C=C2Oc3c(C(C)=O)c(O)c(C)c(O)c3C2(C)C1=O.CC(=O)C1=C([O-])C=C2Oc3c(C(C)=O)c(O)c(C)c(O)c3C2(C)C1=O.CC(=O)C1=C([O-])C=C2Oc3c(C(C)=O)c(O)c(C)c(O)c3C2(C)C1=O.O.O.O.O.[Sm+3] (stereo not drawn) [SmL3·4H2O 2] | 20 | 5.23 | 43.5 | 41.7 | 45.7 | 1.26 | 10.2 | 3.1 | 5.5 | 81.2 | 2.8 | 1.7 | 3.4 | 92.1 | 4.0 | 2.5 | 7.6 | 85.8 | reduction in TMRE labeling (ΔΨm) ([2]; 48 h): 40.7%; reduction in viability ([4]; 24 h after treatment at IC50): 17.2% |
| C[C@@H]1[C@H](O)[C@@H](C)/C=C/C=C/C=C/C=C/C=C/C=C/C=C/[C@H](O[C@@H]2O[C@H](C)[C@@H](O)[C@H](N)[C@@H]2O)C[C@@H]2O[C@](O)(C[C@@H](O)C[C@@H](O)[C@H](O)CC[C@@H](O)C[C@@H](O)CC(=O)O[C@H]1C)C[C@H](O)[C@H]2C(=O)O [Amphotericin B, reference compound] | – | – | – | – | – | – | – | – | – | – | – | – | – | – | – | – | – | – | IC50 [1, 8]: 0.198 µM; IC50 ([3]; Leishmania amazonensis, MTT, read-out: L. amazonensis Promastigotes (Pro.) IC50): 0.145 µM |
| CC(=O)C1=C([O-])C=C2Oc3c(C(C)=O)c(O)c(C)c(O)c3C2(C)C1=O.CC(=O)C1=C([O-])C=C2Oc3c(C(C)=O)c(O)c(C)c(O)c3C2(C)C1=O.CC(=O)C1=C([O-])C=C2Oc3c(C(C)=O)c(O)c(C)c(O)c3C2(C)C1=O.O.O.O.[Nd+3] (stereo not drawn) [NdL3·3H2O 5] | 19.7 | 2.83 | 70.1 | 11.35 | 60.9 | 0.91 | 0.3 | 0.7 | 0.5 | 98.4 | 1.6 | 1.4 | 3.3 | 93.8 | 7.7 | 2.5 | 10.0 | 79.8 | – |
